Source: patent US8779142B2, “Azabicyclo compound and salt thereof” (Taiho Pharmaceutical Co., Ltd., priority 2009, dated 2014)

Legend:
[1] = system: SK-BR-3 cells; experiment: Measurement of cell growth inhibition (crystal violet staining method); format: cell-based; settings: Homo sapiens; breast cancer SK-BR-3 cells, 72 hr culture with test substance
[2] = biological target: human HSP90 alpha protein (HSP90 N-terminal protein, amino acids 2-236) (Homo sapiens (Human), UniProt P07900); experiment: Measurement of HSP90-binding activity (AlphaScreen competitive assay, biotin-labeled geldanamycin); settings: concentration inhibiting binding of biotin-labeled geldanamycin (40 nM) to purified HSP90 to 50% of control; read-out: HSP-binding activity IC50

| Compound | IC50 [1] | IC50 [2] |
| --- | --- | --- |
| Cn1cc(-c2cn(-c3ccnc4c3c(C(F)(F)F)nn4-c3ccc(C(N)=O)cc3F)cn2)cn1 [Example 171, 3-Fluoro-4-{4-(4-(1-methyl-1H-pyrazol-4-yl)-1H-imidazol-1-yl)-3-(trifluoromethyl)-1H-pyrazolo[3,4-b]pyridin-1-yl}benzamide] | 130 nM | 100 nM |
| Cn1cc(-c2cn(-c3ccnc4c3c(C(F)(F)F)nn4-c3ccc(C(N)=O)cc3-c3ccccc3)cn2)cn1 [Example 172, 6-{4-(4-(1-Methyl-1H-pyrazol-4-yl)-1H-imidazol-1-yl)-3-(trifluoromethyl)-1H-pyrazolo[3,4-b]pyridin-1-yl}biphenyl-3-carboxamide] | 870 nM | 1070 nM |
| C=C(C)c1cc(C(N)=O)ccc1-n1nc(C(F)(F)F)c2c(-n3cnc(-c4cnn(C)c4)c3)ccnc21 [Example 174, 4-{4-(4-(1-Methyl-1H-pyrazol-4-yl)-1H-imidazol-1-yl)-3-(trifluoromethyl)-1H-pyrazolo[3,4-b]pyridin-1-yl}-3-(prop-1-en-2-yl)benzamide] | 380 nM | 320 nM |
| Cc1cc(C(N)=O)ccc1-n1nc(C(F)(F)F)c2c(-n3cnc(-c4cccnc4)c3)ccnc21 [Example 175, 3-Methyl-4-{4-(4-(pyridin-3-yl)-1H-imidazol-1-yl)-3-(trifluoromethyl)-1H-pyrazolo[3,4-b]pyridin-1-yl}benzamide] | 290 nM | 370 nM |
| NC(=O)c1ccc(-n2nc(C(F)(F)F)c3c(-n4cnc(-c5cccnc5)c4)ccnc32)cc1N [Example 176, 2-Amino-4-{4-(4-(pyridin-3-yl)-1H-imidazol-1-yl)-3-(trifluoromethyl)-1H-pyrazolo[3,4-b]pyridin-1-yl}benzamide] | 410 nM | 420 nM |
| NC(=O)c1ccc(-n2nc(C(F)(F)F)c3c(-n4cnc(-c5cccnc5)c4)ccnc32)c(N)c1 [Example 177, 3-Amino-4-{4-(4-(pyridin-3-yl)-1H-imidazol-1-yl)-3-(trifluoromethyl)-1H-pyrazolo[3,4-b]pyridin-1-yl}benzamide] | 390 nM | 270 nM |
| CCNc1cc(C(N)=O)ccc1-n1nc(C(F)(F)F)c2c(-n3cnc(-c4cccnc4)c3)ccnc21 [Example 180, 3-(Ethylamino)-4-{4-(4-(pyridin-3-yl)-1H-imidazol-1-yl)-3-(trifluoromethyl)-1H-pyrazolo[3,4-b]pyridin-1-yl}benzamide] | 140 nM | 190 nM |

Now those with a lower IC50 [1], led by results:

| IC50 [1] | IC50 [2] | Compound |
| --- | --- | --- |
| 80 nM | 120 nM | Cn1cc(-c2cn(-c3ccnc4c3c(C(F)(F)F)nn4-c3ccc(C(N)=O)cc3C3CC3)cn2)cn1 [Example 173, 3-(Cyclopropyl)-4-{4-(4-(1-methyl-1H-pyrazol-4-yl)-1H-imidazol-1-yl)-3-(trifluoromethyl)-1H-pyrazolo[3,4-b]pyridin-1-yl}benzamide] |
| 80 nM | 530 nM | CCNc1cc(-n2nc(C(F)(F)F)c3c(-n4cnc(-c5cccnc5)c4)ccnc32)ccc1C(N)=O [Example 178, 2-(Ethylamino)-4-{4-(4-(pyridin-3-yl)-1H-imidazol-1-yl)-3-(trifluoromethyl)-1H-pyrazolo[3,4-b]pyridin-1-yl}benzamide] |
| 70 nM | 380 nM | CC(C)Nc1cc(-n2nc(C(F)(F)F)c3c(-n4cnc(-c5cccnc5)c4)ccnc32)ccc1C(N)=O [Example 179, 2-(Isopropylamino)-4-{4-(4-(pyridin-3-yl)-1H-imidazol-1-yl)-3-(trifluoromethyl)-1H-pyrazolo[3,4-b]pyridin-1-yl}benzamide] |
| 120 nM | 140 nM | CC(C)Nc1cc(C(N)=O)ccc1-n1nc(C(F)(F)F)c2c(-n3cnc(-c4cccnc4)c3)ccnc21 [Example 181, 3-(Isopropylamino)-4-{4-(4-(pyridin-3-yl)-1H-imidazol-1-yl)-3-(trifluoromethyl)-1H-pyrazolo[3,4-b]pyridin-1-yl}benzamide] |
